Reference: article PMC8143618, “Biochemical profiling of anti-HIV prodrug Elsulfavirine (Elpida®) and its active form VM1500A against a panel of twelve human carbonic anhydrase isoforms” (Journal of Enzyme Inhibition and Medicinal Chemistry, 2021)

How the values were obtained:
[1] = parameters: method as in PMID 28940154; details: cited from earlier work
hCA I = hCA I (Homo sapiens, UniProt P00915); experiment: Stopped flow CO2 hydrase assay, hCA I
Procedure: (§1) An Applied Photophysics stopped-flow instrument has been used for assaying the CA-catalysed CO2 hydration activity[11]. […] The uncatalysed rates were determined in the same manner and subtracted from the total observed rates. Stock solutions of inhibitor (0.1 mM) were prepared in distilled-deionised water and dilutions up to 0.01 nM were done thereafter with the assay buffer. […] The inhibition constants were obtained by non-linear least-squares methods using PRISM 3 and the Cheng–Prusoff equation, as reported earlier[12]^,[13] and represent the mean from at least three different determinations.

hCA II = hCA II (Homo sapiens, UniProt P00918); experiment: Stopped flow CO2 hydrase assay, hCA II
Procedure: as §1

hCA IV = hCA IV (Homo sapiens, UniProt P22748); experiment: Stopped flow CO2 hydrase assay, hCA IV
Procedure: as §1

hCA VA = hCA VA (Homo sapiens, UniProt P35218); experiment: Stopped flow CO2 hydrase assay, hCA VA
Procedure: as §1

hCA VB = hCA VB (Homo sapiens, UniProt Q9Y2D0); experiment: Stopped flow CO2 hydrase assay, hCA VB
Procedure: as §1

hCA VI = hCA VI (Homo sapiens, UniProt P23280); experiment: Stopped flow CO2 hydrase assay, hCA VI
Procedure: as §1

hCA IX = hCA IX (Homo sapiens, UniProt Q16790); experiment: Stopped flow CO2 hydrase assay, hCA IX
Procedure: as §1

hCA III = hCA III (Homo sapiens, UniProt P07451); experiment: Stopped flow CO2 hydrase assay, hCA III
Procedure: as §1

hCA VII = hCA VII (Homo sapiens, UniProt P43166); experiment: Stopped flow CO2 hydrase assay, hCA VII
Procedure: as §1

hCA XII = hCA XII (Homo sapiens, UniProt O43570); experiment: Stopped flow CO2 hydrase assay, hCA XII
Procedure: as §1

hCA XIV = hCA XIV (Homo sapiens, UniProt Q9ULX7); experiment: Stopped flow CO2 hydrase assay, hCA XIV
Procedure: as §1

hCA XIII = hCA XIII (Homo sapiens, UniProt Q8N1Q1); experiment: Stopped flow CO2 hydrase assay, hCA XIII
Procedure: as §1

HIV = details: compared to efavirenz, cited from earlier work

hCA IV, sequence (P22748 19-312): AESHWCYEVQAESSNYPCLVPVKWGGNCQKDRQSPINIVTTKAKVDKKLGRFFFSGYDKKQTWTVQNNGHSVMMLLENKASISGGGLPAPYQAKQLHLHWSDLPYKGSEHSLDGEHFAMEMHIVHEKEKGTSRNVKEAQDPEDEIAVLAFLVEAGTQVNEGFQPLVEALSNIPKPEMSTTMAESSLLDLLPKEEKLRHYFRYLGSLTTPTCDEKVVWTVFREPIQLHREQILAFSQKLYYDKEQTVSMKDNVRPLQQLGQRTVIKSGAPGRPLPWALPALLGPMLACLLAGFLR
hCA VII, sequence (P43166 whole entry): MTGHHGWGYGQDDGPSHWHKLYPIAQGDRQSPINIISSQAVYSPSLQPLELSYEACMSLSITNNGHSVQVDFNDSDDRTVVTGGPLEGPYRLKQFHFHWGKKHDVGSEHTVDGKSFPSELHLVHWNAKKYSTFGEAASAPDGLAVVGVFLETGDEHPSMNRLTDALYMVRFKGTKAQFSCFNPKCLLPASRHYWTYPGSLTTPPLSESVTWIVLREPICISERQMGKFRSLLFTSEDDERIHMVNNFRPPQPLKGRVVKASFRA
hCA III, sequence (P07451 whole entry): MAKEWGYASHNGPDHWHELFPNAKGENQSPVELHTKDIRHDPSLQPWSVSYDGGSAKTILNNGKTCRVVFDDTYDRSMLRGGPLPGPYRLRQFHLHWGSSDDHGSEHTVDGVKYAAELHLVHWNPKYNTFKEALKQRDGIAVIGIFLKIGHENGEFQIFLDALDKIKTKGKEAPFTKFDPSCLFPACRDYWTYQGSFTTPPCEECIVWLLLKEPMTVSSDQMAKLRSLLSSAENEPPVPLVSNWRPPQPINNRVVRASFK
hCA I, sequence (P00915 whole entry): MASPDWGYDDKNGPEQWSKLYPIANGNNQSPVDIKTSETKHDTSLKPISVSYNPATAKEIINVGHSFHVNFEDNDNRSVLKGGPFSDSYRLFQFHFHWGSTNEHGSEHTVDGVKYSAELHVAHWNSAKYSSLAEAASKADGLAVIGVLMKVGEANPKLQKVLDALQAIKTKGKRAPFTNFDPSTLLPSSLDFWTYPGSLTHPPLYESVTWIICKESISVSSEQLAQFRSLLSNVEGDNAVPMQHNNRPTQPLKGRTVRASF
hCA VB, sequence (Q9Y2D0 34-317): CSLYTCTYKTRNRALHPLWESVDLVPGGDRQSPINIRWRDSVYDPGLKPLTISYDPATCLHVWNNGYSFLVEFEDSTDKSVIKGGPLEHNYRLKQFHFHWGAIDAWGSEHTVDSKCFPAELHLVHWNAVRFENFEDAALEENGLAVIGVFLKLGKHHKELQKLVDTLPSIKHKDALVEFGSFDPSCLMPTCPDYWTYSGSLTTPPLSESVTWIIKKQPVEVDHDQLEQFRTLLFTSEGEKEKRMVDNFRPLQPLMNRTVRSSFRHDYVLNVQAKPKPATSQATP
hCA XIII, sequence (Q8N1Q1 whole entry): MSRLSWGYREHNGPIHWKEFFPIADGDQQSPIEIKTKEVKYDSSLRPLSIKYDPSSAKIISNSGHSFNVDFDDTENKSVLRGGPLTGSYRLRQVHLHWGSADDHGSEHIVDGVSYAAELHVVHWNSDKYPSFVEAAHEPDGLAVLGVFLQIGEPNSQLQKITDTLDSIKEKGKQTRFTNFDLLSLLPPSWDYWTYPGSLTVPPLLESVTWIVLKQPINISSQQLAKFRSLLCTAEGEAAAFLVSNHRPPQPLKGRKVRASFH
hCA VI, sequence (P23280 18-308): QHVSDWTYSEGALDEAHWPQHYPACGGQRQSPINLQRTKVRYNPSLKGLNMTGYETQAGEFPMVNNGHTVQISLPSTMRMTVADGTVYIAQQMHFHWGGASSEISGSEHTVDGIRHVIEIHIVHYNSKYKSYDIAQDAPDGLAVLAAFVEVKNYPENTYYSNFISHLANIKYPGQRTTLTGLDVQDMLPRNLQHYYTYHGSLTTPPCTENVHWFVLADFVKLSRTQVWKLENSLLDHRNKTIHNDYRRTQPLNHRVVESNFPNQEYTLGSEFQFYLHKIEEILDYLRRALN
hCA VA, sequence (P35218 39-305): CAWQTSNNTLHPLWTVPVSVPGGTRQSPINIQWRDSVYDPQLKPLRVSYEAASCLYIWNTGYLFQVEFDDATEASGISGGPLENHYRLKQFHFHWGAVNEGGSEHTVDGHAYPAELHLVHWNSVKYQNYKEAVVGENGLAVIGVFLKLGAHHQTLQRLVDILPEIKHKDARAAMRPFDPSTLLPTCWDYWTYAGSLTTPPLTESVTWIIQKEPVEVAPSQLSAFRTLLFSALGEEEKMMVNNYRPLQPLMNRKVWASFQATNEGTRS
hCA XIV, sequence (Q9ULX7 16-337): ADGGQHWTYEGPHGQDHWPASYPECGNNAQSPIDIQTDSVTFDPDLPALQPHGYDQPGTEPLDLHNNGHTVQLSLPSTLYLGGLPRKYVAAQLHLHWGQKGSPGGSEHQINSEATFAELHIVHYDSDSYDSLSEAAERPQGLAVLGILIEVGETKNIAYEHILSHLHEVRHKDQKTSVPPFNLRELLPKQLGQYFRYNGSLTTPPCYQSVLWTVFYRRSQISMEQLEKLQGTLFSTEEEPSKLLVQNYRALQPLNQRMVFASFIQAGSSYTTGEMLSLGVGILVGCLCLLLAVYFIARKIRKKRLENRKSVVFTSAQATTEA
hCA XII, sequence (O43570 25-354): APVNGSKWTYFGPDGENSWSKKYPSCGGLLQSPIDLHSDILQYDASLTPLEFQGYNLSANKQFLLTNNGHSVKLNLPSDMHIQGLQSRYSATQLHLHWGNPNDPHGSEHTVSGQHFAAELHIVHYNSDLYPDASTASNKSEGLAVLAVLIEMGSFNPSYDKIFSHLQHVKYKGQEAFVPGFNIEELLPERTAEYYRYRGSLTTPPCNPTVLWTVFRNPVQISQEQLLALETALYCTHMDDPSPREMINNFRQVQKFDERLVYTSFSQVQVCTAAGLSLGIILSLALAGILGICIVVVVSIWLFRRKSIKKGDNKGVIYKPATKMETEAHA

Row | selectivity towards hCA VII over the majority of other hCA isoforms (hCA VII; from Ki values) | Ki (hCA XII) | Compound | t1/2 of elimination ([1]; elimination of active form) | Ki (hCA I) | Ki (hCA II) | Ki (hCA IV) | Ki (hCA VA) | Ki (hCA VB) | Ki (hCA VI) | Ki (hCA IX) | Ki (hCA III) | Ki (hCA VII) | Ki (hCA XIV) | Ki (hCA XIII) | t1/2 of conversion to VM1500A ([1]; conversion of prodrug to active form) | tolerability and side effects (HIV; patients) | virologic response (viral load and HIV RNA reduction) (HIV; treatment-naive patients) | inhibition of hCA IV (in words) (hCA IV; stopped flow CO2 hydrase assay) | inhibition of hCA III (in words) (hCA III; stopped flow CO2 hydrase assay)
1 | 1–2 orders of magnitude | 62.3 nM | N#Cc1cc(Cl)cc(Oc2c(Br)ccc(CC(=O)Nc3ccc(S(N)(=O)=O)cc3Cl)c2F)c1 [VM1500A] | > 120 h | 514 nM | 35.5 nM | 158 nM | 537 nM | 221 nM | 125 nM | 72.1 nM | > 100000 nM | 9.7 nM | 15.4 nM | 52.2 nM | – | – | – | – | –
2 | – | – | CCC(=O)NS(=O)(=O)c1ccc(NC(=O)Cc2ccc(Br)c(Oc3cc(Cl)cc(C#N)c3)c2F)c(Cl)c1 [elsulfavirine] | – | 52400 nM | 12500 nM | > 100000 nM | 4290 nM | 14200 nM | 5670 nM | 6650 nM | > 100000 nM | 2390 nM | 1960 nM | 4820 nM | ~2 h | superior tolerability and fewer side effects | comparable to that of the patients treated with efavirenz | virtually no inhibition | virtually no inhibition
